PubChem BioAssay AID1963958 (Molecular Pharmacology Branch, DTP, NCI, 2024)

System: MDA-MB-231 multicell spheroids, viability
Experiment: Anticancer human tumor MDA-MB-231 cell line growth inhibition [PI3K];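 further: spheroids exposed to agents for seven days before reading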;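 on viability, T/C: percent of vehicle control luminescence with DMSO treated spheroids as 100%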
Conditions: for IC50: curve of first compound; for viability, T/C: stronger effect = lower value; active means viability on the fitted dose curve at most 10% of control; inactive means the rest
In short: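 Tumor cells grown as multi-cell spheroids with HUVEC endothelial cells and MSC fibroblast-like stroma were treated with targeted agents combined with inavolisib, alpelisib, duvelisib or copanlisib. Doses fell in half-log steps from near clinical Cmax, else from 10 microM. Viability was measured.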

Cn1cnc2c(F)c(Nc3ccc(Br)cc3Cl)c(C(=O)NOCCO)cc21 + Cc1nc(NC(=O)N2CCCC2C(N)=O)sc1-c1ccnc(C(C)(C)C(F)(F)F)c1
273 nM: IC50 (second compound 0.0316 µM)
61.1 nM: IC50 (second compound 0.1 µM)
inactive: viability, T/C (second compound 0.0316 µM, first compound 0.00949 µM) 63.2% | viability, T/C (second compound 0.0316 µM, first compound 0.03 µM) 55.5% | viability, T/C (second compound 0.0316 µM, first compound 0.0949 µM) 56.7% | viability, T/C (second compound 0.0316 µM, first compound 0.3 µM) 47.1% | viability, T/C (second compound 0.0316 µM, first compound 0.949 µM) 45.2% | viability, T/C (second compound 0.0316 µM, first compound 3 µM) 29.5% | viability, T/C (second compound 0.1 µM, first compound 0.00949 µM) 58.1% | viability, T/C (second compound 0.1 µM, first compound 0.03 µM) 51.1% | viability, T/C (second compound 0.1 µM, first compound 0.0949 µM) 47.8% | viability, T/C (second compound 0.1 µM, first compound 0.3 µM) 41.4% | viability, T/C (second compound 0.1 µM, first compound 0.949 µM) 40% | viability, T/C (second compound 0.1 µM, first compound 3 µM) 26.1% | viability, T/C (second compound 0.316 µM, first compound 0.00949 µM) 50.4% | viability, T/C (second compound 0.316 µM, first compound 0.03 µM) 43.2% | viability, T/C (second compound 0.316 µM, first compound 0.0949 µM) 48.1% | viability, T/C (second compound 0.316 µM, first compound 0.3 µM) 40.6% | viability, T/C (second compound 0.316 µM, first compound 0.949 µM) 34.3% | viability, T/C (second compound 0.316 µM, first compound 3 µM) 22.1% | viability, T/C (second compound 1 µM, first compound 0.00949 µM) 44.4% | viability, T/C (second compound 1 µM, first compound 0.03 µM) 37.8% | viability, T/C (second compound 1 µM, first compound 0.0949 µM) 38.7% | viability, T/C (second compound 1 µM, first compound 0.3 µM) 37.4% | viability, T/C (second compound 1 µM, first compound 0.949 µM) 33% | viability, T/C (second compound 1 µM, first compound 3 µM) 12.6% | viability, T/C (second compound 3.16 µM, first compound 0.00949 µM) 48.4% | viability, T/C (second compound 3.16 µM, first compound 0.03 µM) 37.1% | viability, T/C (second compound 3.16 µM, first compound 0.0949 µM) 36.2% | viability, T/C (second compound 3.16 µM, first compound 0.3 µM) 36.1% | viability, T/C (second compound 3.16 µM, first compound 0.949 µM) 30.2% | viability, T/C (second compound 3.16 µM, first compound 3 µM) 9.65% | viability, T/C (second compound 10 µM, first compound 0.00949 µM) 39.2% | viability, T/C (second compound 10 µM, first compound 0.03 µM) 32.7% | viability, T/C (second compound 10 µM, first compound 0.0949 µM) 31.6% | viability, T/C (second compound 10 µM, first compound 0.3 µM) 24.7% | viability, T/C (second compound 10 µM, first compound 0.949 µM) 17.9%
active: viability, T/C (second compound 10 µM, first compound 3 µM) 4.43%
< 9.49 nM: IC50 (second compound 0.316 µM) | IC50 (second compound 1 µM) | IC50 (second compound 3.16 µM) | IC50 (second compound 10 µM)
